Results: patent publication US11040031B2, “Pyrazole derivatives as MALT1 inhibitors” (Janssen Pharmaceutica NV, priority 2018, dated 2021)
Where two headings read alike, the source gives them in different places.

Assays:
[1] = system: OCI-Ly3 ABC-DLBCL cell line; test: 4-day proliferation assay OCI-Ly3; format: cell-based; settings: Homo sapiens, 96 h; 10,000 OCI-Ly3 cells per well, 4 days, CellTiterGLO; read-out: Anti-proliferation: OCI-LY-3 IC50
Protocol: To assess anti-proliferative effects, MALT1 inhibitor test compounds were tested in 4-day proliferation assays using three different DLBCL cell lines.
Cells should be kept between 0.5-2.5 million cells per mL during culturing and cells should be supplemented every 2-3 days with fresh 50 μM beta-mercaptoenthanol. No beta-mercaptoethanol is used during the proliferation assay. OCI-Ly7 cells were propagated in IMDM (ThermoFisher) supplemented with 10% fetal bovine serum (HyClone), 2 mM L-glutamine (Sigma Aldrich) and 50 μg/mL Gentamycin. Cell passage numbers should not exceed 30.
10,000 TMD8, 10,000 OCI-Ly3 or 2,000 OCI-Ly7 cells were seeded in 100 μL media per well and incubated for 4 days at 37° C. and 5% CO2. Cell plating numbers were chosen based on growth curves to ensure linear cell growth. After 4 days of incubation 50 μl CellTiterGLO reagent (Promega) were added to each well and luminescence was measured on the Envision after 10 min of incubation at room temperature.

[2] = biological target: T1, full-length MALT1 protein (Strep-MALT1(1-824)-His) (Homo sapiens, UniProt Q9UDY8); test: biochemical;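 also: fluorogenic LRSR-AMC substrate cleavage by MALT1, 50 min compound preincubation then 4 h reaction at RT, 11-point dilution from 30 µM, scaled between enzyme-free and untreated enzyme controls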
T1 sequence (Q9UDY8 1-824): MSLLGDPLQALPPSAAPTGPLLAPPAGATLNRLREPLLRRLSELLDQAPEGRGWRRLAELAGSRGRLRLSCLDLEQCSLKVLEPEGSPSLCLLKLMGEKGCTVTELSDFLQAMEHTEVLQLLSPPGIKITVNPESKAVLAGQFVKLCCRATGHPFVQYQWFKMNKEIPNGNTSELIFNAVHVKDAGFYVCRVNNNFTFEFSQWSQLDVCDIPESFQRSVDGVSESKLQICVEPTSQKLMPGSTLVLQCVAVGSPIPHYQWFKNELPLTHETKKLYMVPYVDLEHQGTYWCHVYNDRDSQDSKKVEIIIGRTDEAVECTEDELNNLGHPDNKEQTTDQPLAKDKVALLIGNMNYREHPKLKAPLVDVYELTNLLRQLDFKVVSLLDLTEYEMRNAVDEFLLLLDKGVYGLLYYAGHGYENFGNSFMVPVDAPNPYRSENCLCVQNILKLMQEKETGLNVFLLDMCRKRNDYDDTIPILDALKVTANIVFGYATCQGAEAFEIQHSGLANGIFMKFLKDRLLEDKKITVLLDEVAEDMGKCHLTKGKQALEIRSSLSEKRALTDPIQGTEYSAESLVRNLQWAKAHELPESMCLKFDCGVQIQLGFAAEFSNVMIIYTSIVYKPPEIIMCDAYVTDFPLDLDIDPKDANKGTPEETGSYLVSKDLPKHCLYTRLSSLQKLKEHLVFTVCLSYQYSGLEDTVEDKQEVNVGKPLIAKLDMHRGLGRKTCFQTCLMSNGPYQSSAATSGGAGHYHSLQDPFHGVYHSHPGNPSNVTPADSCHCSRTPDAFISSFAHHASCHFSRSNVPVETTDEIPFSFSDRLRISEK
Protocol: MALT1 protease activity was assessed in an in vitro assay using a tetrapeptide as substrate and full-length MALT1 protein (Strep-MALT1(1-824)-His) purified from baculovirus-infected insect cells. The tetrapeptide LRSR is coupled to AMC (7-amino-4-methylcoumarin) and provides a quenched, fluorescent substrate for the MALT1 protease (SM Biochemicals). Cleavage of AMC from the Arginine residue results in an increase in coumarin fluorescence measured at 460 nm (excitation 355 nm). […] Test compounds were spotted at 50 nL in 100% DMSO per well of a black 384-Proxiplate (Perkin Elmer). Test compound concentrations ranged from 30 μM to 0.5 nM using 11 dilution steps (1:3). Background signal was measured from control wells containing assay buffer without enzyme which functions as low control (LC). High control (HC) values were generated using the reaction with enzyme but no compound treatment. Compounds were pre-incubated with MALT1 enzyme for 50 minutes at RT. Substrate was added subsequently and fluorescence was measured in Labsystems fluoroskan at excitation 355 nm and emission 460 nm to determine time 0. The reaction was subsequently incubated for 4 h at RT and fluorescence was measured. […] The enzyme reaction was linear during the 4 h incubation period.
IC50 values were calculated using the following formula (Z prime should be >0.5):
From this an IC50 value (inhibitory concentration causing 50% inhibition) can be obtained. An estimate of the slope of the plot in terms of the Hill coefficient was also obtained.
With y=estimated response • UB=upper bound • LB=lower bound • h=hill

[3] = system: Secretion of IL10 by OCI-LY3 ABC-DLBCL cells; test: Human IL10 Mesoscale assay (OCI-LY3); format: cell-based; settings: read-out: Human IL10 Mesoscale assay (OCI-LY3)
Procedure, shortened: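 TMD8 or OCI-LY3 ABC-DLBCL cells incubated with compound 24 h at 37° C without beta-mercaptoethanol. Secreted IL6 and IL10 in supernatant quantified by MSD electrochemiluminescence immunoassay; DMSO wells define maximum signal.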

[4] = system: Secretion of IL6 by OCI-LY3 ABC-DLBCL cells; test: Human IL6 Mesoscale assay (OCI-LY3); format: cell-based; settings: read-out: Human IL6 Mesoscale assay (OCI-LY3)
Protocol: NFKB signaling regulates the secretion of multiple cytokines, including IL6 and IL10. Secretion of the cytokines IL6 and IL10 by TMD8 or OCI-LY3 ABC-DLBCL cells was measured using a mesoscale assay.
Cell passage number should not exceed 30. Cells should be kept between 0.5-2.5 million cells per mL during culturing and cells should be supplemented every 2-3 days with fresh 50 µM beta-mercaptoenthanol. No beta-mercaptoethanol was used during the mesoscale assay.
DMSO control wells were used to determine the maximum signal (High Control (HC)). […] Compounds and cells were incubated for 24 h at 37° C. and 5% CO2 (assay volume is 150 μL). After 24 h of incubation 50 μL of the supernatant was transferred to a MSD plate (V-Plex Proinflammation Panel 1 (human) kit, Mesoscale (MSD)) and incubated for 2 h with vigorous shaking (600 rpm) at room temperature. Following incubation, plates were washed 3× with PBS+0.05% Tween-20 and 25 μL detection antibody solution (IL6 & IL10 antibodies in diluent 3 (MSD)) was added per well followed by 2 h of incubation with vigorous shaking (600 rpm) at room temperature. After 3× washes with PBS+0.05% Tween-20, plates were incubated with 150 μL 2× Read Buffer T and read on SECTOR imager.

[5] = OCI-LY3 cells, 24 h incubation, supernatant, MSD V-Plex

Row | SMILES | IC50 [1] [nM] | IC50 [2] [nM] | IC50 [3, 5] [nM] | IC50 [4, 5] [nM] | IC50 ([3]; OCI-Ly3, 24 h) [nM] | IC50 ([4]; OCI-Ly3, 24 h) [nM]
1 | O=C(Nc1cnc(-n2nccn2)c(Cl)c1)c1cnn(-c2ccc(F)cc2F)c1C(F)(F)F [Cpd 117, N-(5-chloro-6-(2H-1,2,3-triazol-2-yl)pyridin-3-yl)-1-(2,4-difluorophenyl)-5-(trifluoromethyl)-1H-pyrazole-4-carboxamide] | 407 | 288 |  |  |  | 
2 | O=C(Nc1cnc(-n2nccn2)c(Cl)c1)c1cnn(-c2cccc(F)c2Cl)c1C(F)(F)F [Cpd 82, 1-(2-chloro-3-fluorophenyl)-N-(5-chloro-6-(2H-1,2,3-triazol-2-yl)pyridin-3-yl)-5-(trifluoromethyl)-1H-pyrazole-4-carboxamide] | 3390 | 162 |  |  |  | 
3 | COc1cc(F)ccc1-n1ncc(C(=O)Nc2cnc(-n3nccn3)c(C#N)c2)c1C(F)(F)F [Cpd 54, N-(5-cyano-6-(2H-1,2,3-triazol-2-yl)pyridin-3-yl)-1-(4-fluoro-2-methoxyphenyl)-5-(trifluoromethyl)-1H-pyrazole-4-carboxamide] | 1620 | 89 |  |  |  | 
4 | Cc1cc(F)ccc1-n1ncc(C(=O)Nc2cnc(-n3nccn3)c(C#N)c2)c1C(F)(F)F [Cpd 64, N-(5-cyano-6-(2H-1,2,3-triazol-2-yl)pyridin-3-yl)-1-(4-fluoro-2-methylphenyl)-5-(trifluoromethyl)-1H-pyrazole-4-carboxamide] | 1550 | 54 |  |  |  | 
5 | Cc1nc(-n2nccn2)c(C#N)cc1NC(=O)c1cnn(-c2ccc(Cl)c(N)n2)c1C(F)(F)F [Cpd 200, 1-(6-amino-5-chloropyridin-2-yl)-N-(5-cyano-2-methyl-6-(2H-1,2,3-triazol-2-yl)pyridin-3-yl)-5-(trifluoromethyl)-1H-pyrazole-4-carboxamide] |  | 275 | 245 | 794 |  | 
6 | Nc1ccc(Cl)c(-n2ncc(C(=O)Nc3cnc(-n4nccn4)c(Cl)c3)c2C(F)(F)F)n1 [Cpd 183, 1-(6-amino-3-chloropyridin-2-yl)-N-(5-chloro-6-(2H-1,2,3-triazol-2-yl)pyridin-3-yl)-5-(trifluoromethyl)-1H-pyrazole-4-carboxamide] |  | 282 | 195 | 269 |  | 
7 | N#Cc1cc(NC(=O)c2cnn(-c3nc(Cl)ccc3Cl)c2C(F)(F)F)cnc1-n1nccn1 [Cpd 162, N-(5-cyano-6-(2H-1,2,3-triazol-2-yl)pyridin-3-yl)-1-(3,6-dichloropyridin-2-yl)-5-(trifluoromethyl)-1H-pyrazole-4-carboxamide] |  | 302 | 182 | 251 |  | 
8 | Cc1c(-n2ncc(C(=O)Nc3cnc(-n4nccn4)c(C#N)c3)c2C(F)(F)F)ccnc1N [Cpd 143, 1-(2-amino-3-methylpyridin-4-yl)-N-(5-cyano-6-(2H-1,2,3-triazol-2-yl)pyridin-3-yl)-5-(trifluoromethyl)-1H-pyrazole-4-carboxamide] |  | 110 |  |  | 617 | 1050
9 | Cc1c(F)cccc1-n1ncc(C(=O)Nc2cnc(-n3nccn3)c(Cl)c2)c1C(F)(F)F [Cpd 171, N-(5-chloro-6-(2H-1,2,3-triazol-2-yl)pyridin-3-yl)-1-(3-fluoro-2-methylphenyl)-5-(trifluoromethyl)-1H-pyrazole-4-carboxamide] |  | 145 | 76 | 98 |  | 
10 | Cc1nc(-n2nccn2)c(Cl)cc1NC(=O)c1cnn(-c2ccc(F)c(N)n2)c1C(F)(F)F [Cpd 179, 1-(6-amino-5-fluoropyridin-2-yl)-N-(5-chloro-2-methyl-6-(2H-1,2,3-triazol-2-yl)pyridin-3-yl)-5-(trifluoromethyl)-1H-pyrazole-4-carboxamide] |  | 204 | 324 | 676 |  | 
11 | O=C(Nc1cnc(-n2nccn2)c(Cl)c1)c1cnn(-c2ccc(F)cc2Cl)c1C(F)(F)F [Cpd 107, 1-(2-chloro-4-fluorophenyl)-N-(5-chloro-6-(2H-1,2,3-triazol-2-yl)pyridin-3-yl)-5-(trifluoromethyl)-1H-pyrazole-4-carboxamide] |  | 141 | 112 | 158 |  | 
12 | Cc1c(-n2ncc(C(=O)Nc3cnc(-n4nccn4)c(C#N)c3)c2C(F)(F)F)ccc(F)c1F [Cpd 168, N-(5-cyano-6-(2H-1,2,3-triazol-2-yl)pyridin-3-yl)-1-(3,4-difluoro-2-methylphenyl)-5-(trifluoromethyl)-1H-pyrazole-4-carboxamide] |  | 74 | 46 | 78 |  | 
13 | Cc1cc(C#N)ccc1-n1ncc(C(=O)Nc2cnc(-n3nccn3)c(C#N)c2)c1C(F)(F)F [Cpd 126, 1-(4-cyano-2-methylphenyl)-N-(5-cyano-6-(2H-1,2,3-triazol-2-yl)pyridin-3-yl)-5-(trifluoromethyl)-1H-pyrazole-4-carboxamide] |  | 38 |  |  | 68 | 76
14 | Cc1cc(F)ccc1-n1ncc(C(=O)Nc2cc(C#N)c(-n3nccn3)nc2C)c1C(F)(F)F [Cpd 170, N-(5-cyano-2-methyl-6-(2H-1,2,3-triazol-2-yl)pyridin-3-yl)-1-(4-fluoro-2-methylphenyl)-5-(trifluoromethyl)-1H-pyrazole-4-carboxamide] |  | 102 | 380 | 417 |  | 
15 | Cc1cc(-n2nccn2)c(Cl)cc1NC(=O)c1cnn(-c2ccc(F)c(N)n2)c1C(F)(F)F [Cpd 193, 1-(6-amino-5-fluoropyridin-2-yl)-N-(5-chloro-2-methyl-4-(2H-1,2,3-triazol-2-yl)phenyl)-5-(trifluoromethyl)-1H-pyrazole-4-carboxamide] |  | 1170 | 741 | 871 |  | 
16 | Nc1ccnc(-n2ncc(C(=O)Nc3cnc(-n4nccn4)c(Cl)c3)c2C(F)(F)F)c1Cl [Cpd 119, 1-(4-Amino-3-chloropyridin-2-yl)-N-(5-chloro-6-(2H-1,2,3-triazol-2-yl)pyridin-3-yl)-5-(trifluoromethyl)-1H-pyrazole-4-carboxamide] |  | 209 | 148 | 282 |  | 
17 | Cc1cc(-n2nccn2)c(C#N)cc1NC(=O)c1cnn(-c2ccc(F)c(N)n2)c1C(F)(F)F [Cpd 195, 1-(6-amino-5-fluoropyridin-2-yl)-N-(5-cyano-2-methyl-4-(2H-1,2,3-triazol-2-yl)phenyl)-5-(trifluoromethyl)-1H-pyrazole-4-carboxamide] |  | 1200 |  |  | 1860 | 5370
18 | CSc1ccccc1-n1ncc(C(=O)Nc2cnc(-n3nccn3)c(Cl)c2)c1C(F)(F)F [Cpd 137, N-(5-chloro-6-(2H-1,2,3-triazol-2-yl)pyridin-3-yl)-1-(2-(methylthio)phenyl)-5-(trifluoromethyl)-1H-pyrazole-4-carboxamide] |  | 151 | 100 | 123 |  | 
